Results from patent US20240173440A1, “HIGH PURITY COPPER RADIOPHARMACEUTICAL COMPOSITIONS AND DIAGNOSTIC AND THERAPEUTIC USES THEREOF” (Nuclidium AG, priority 2022, published 2024).
Blank lines part the entries; values can stand above or below the compound they belong to.

Legend:
[1] = Remaining PET activity in the mouse body 4h p.i.; format: in vivo; conditions: mice
Procedure: PET/CT Imaging: Mice bearing FAP-positive and FAP-negative xenografts were injected intravenously with ^61Cu-labeled radioligands of the present disclosure or ^61Cu-NODAGA-FAPI-46 (100 μL/[…]/6-12 MBq). […] The mice were euthanized by CO2 at 4 hours p.i., and static PET scans were acquired for 30 min.
Remaining PET activity in the mouse body 4h p.i. prior to the 4h scan was determined (Table 36).

[2] = system: HT-1080.hFAP and HT-1080.wt xenografts; test: Quantitative biodistribution in HT-1080.hFAP and HT-1080.wt xenografted mice; format: in vivo; conditions: for Biodistribution HT-1080.wt: FAP-negative tumor; for Biodistribution HT-1080.hFAP: FAP-positive tumor
Procedure: The tumors were allowed to grow to an average volume of 100-200 mm3.
Biodistribution Studies: The xenografted mice were randomized (n=5 per group) and injected intravenously via the tail vein with the ^61Cu-labeled radioligands (100 μL, […], 0.8-1MBq). Mice were euthanized 1h and 4h pi. by CO2 asphyxiation. Organs of interest and blood were collected, rinsed of excess blood, blotted dry, weighed, and counted in a […]. The samples were counted against a suitably diluted aliquot of the injected solution as the standard and the results are expressed as the percentage of the injected activity per gram of tissue (0% I.A./g)+SD.

[3] = molecular target: hFAP (Homo sapiens (Human), UniProt Q12884); test: Saturation binding on isolated HEK-293.hFAP cell membranes; parameters: Bmax: unit not given here; conditions: 37° C.
Procedure: The cells were homogenized using Ultra-Turrax, and the homogenized suspension was centrifuged at 500×g for 10 min at 4° C. The supernatant was collected in centrifuge tubes (Beckman Coulter Inc., Brea, CA, USA). This procedure was then repeated 5 times. The collected supernatant was centrifuged in an ultra-centrifuge (Beckman) at 4° C. for 55 min at 49,000×g. Then, the pellet was re-suspended in 10 mM ice-cold HEPES buffer (pH 7.5), aliquoted, and stored at −80° C. The protein concentration of those membrane suspensions was determined by the Bradford method, BSA as the standard.
Each assay tube contained 170 μL of binding buffer (20 mM HEPES, pH 7.4, containing 4 mM μgCl2, 0.2% BSA, 20 μg/L bacitracin, 20 μg/L PMSF and 200,000 KIU/L aprotinin). The incubation was initiated by adding 30 μL of radioligand solution at 10 times the final concentration and 100 μL of cell membrane suspension to yield 10 μg of protein per well. For the determination of the non-specific binding, 140 μL of the above binding buffer was added along with 30 μL of FAPI-46 to obtain (0.1 mM). Bound fractions were plotted versus the corresponding radioligand concentration at equilibrium. The dissociation constant (KD) and maximal binding capacity (Bmax) values were calculated using GraphPad Software Inc., Prism 7, San Diego, CA, USA (Table 33 and FIG. 21).

[4] = system: HT-1080.hFAP cells; test: In vitro cellular uptake (cell surface and internalized fractions) in HT-1080.hFAP cells; format: cell-based, human
Procedure: (§1) The cellular uptake was studied in vitro using intact cells seeded in 6-well plates overnight. On the day of the experiment, the cells were washed and incubated with each of the exemplified [^61Cu]Cu-radiotracer at different time points, either alone or in the presence of a blocking agent to distinguish between specific and non-specific uptake. At each investigated time point, the medium containing the unbound (free) radiotracer was removed, followed by two washing steps with ice-cold phosphate-buffered saline. The cells were then treated 2×5 min with ice-cold glycine solution (0.05 M, pH 2.8) to detach the cell surface-bound radiotracer (acid released). Afterwards, the cells containing the internalized radiotracer were detached with 1 M NaOH at 37° C. and collected for measurement. The amount of specific cell surface-bound and internalized radiotracer is expressed as percentage of the total applied activity, after subtracting the non-specific values.
as §1, with “^61Cu-labeled conjugate” for “of the exemplified [^61Cu]Cu-radiotracer”
The cells were then preconditioned in 360 μL of assay medium (MEM medium without supplements) at 37° C. for 60 min. 40 μL of a 2 nM solution of ^61Cu-labeled radioligand was added and the cells were incubated at 37° C. The cellular uptake was interrupted at different time points (15 min, 1 hour and 4 hours), by washing twice with ice-cold PBS. Cell surface-bound radioligand was obtained by washing cells twice with ice-cold glycine buffer (pH 2.8), followed by a collection of the internalized fraction with 1 M NaOH. The activity in each fraction was measured in a γ-counter (Cobra II).

[5] = 1 h p.i., HT-1080.hFAP and HT-1080.wt xenografts
[6] = 4 h p.i., HT-1080.hFAP and HT-1080.wt xenografts
[7] = HT-1080.hFAP and HT-1080.wt xenografts

hFAP, sequence (Q12884 whole entry): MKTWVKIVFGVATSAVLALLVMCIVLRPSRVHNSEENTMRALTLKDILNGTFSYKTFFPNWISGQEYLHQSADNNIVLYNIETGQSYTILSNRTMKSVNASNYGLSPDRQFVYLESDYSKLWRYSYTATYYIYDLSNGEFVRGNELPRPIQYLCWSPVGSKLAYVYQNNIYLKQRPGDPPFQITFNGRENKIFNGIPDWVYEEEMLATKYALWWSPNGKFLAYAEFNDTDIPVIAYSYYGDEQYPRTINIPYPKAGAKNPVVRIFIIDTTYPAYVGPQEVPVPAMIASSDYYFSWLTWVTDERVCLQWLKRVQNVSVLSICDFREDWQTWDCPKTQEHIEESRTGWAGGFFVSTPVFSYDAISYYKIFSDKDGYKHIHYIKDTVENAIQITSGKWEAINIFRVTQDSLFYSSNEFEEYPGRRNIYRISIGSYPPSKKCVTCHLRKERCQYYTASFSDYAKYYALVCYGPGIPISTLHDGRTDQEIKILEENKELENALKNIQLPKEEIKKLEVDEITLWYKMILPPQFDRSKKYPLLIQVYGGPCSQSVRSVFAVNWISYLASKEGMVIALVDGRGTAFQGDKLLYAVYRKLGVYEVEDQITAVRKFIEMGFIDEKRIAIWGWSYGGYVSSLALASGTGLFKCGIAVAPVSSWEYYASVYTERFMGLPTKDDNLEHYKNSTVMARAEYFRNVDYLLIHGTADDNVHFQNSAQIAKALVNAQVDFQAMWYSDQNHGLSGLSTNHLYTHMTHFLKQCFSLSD

retention in the body (remaining PET activity) [1]: highest retention in the body
Biodistribution Spleen ([2]; 1 hour p.i.): 0.8 ± 0.1 % I.A./g
Biodistribution Adrenal [2, 5]: 2.3 ± 0.5 % IA/g
Biodistribution Blood [2, 5]: 2.3 ± 0.1 % IA/g
Biodistribution Femur [2, 5]: 10.9 ± 1.1 % IA/g
Biodistribution HT1080.hFAP (FAP-positive tumor) [2, 5]: 12.6 ± 1.5 % IA/g
Biodistribution HT1080.wt (FAP-negative tumor) [2, 5]: 4.5 ± 0.6 % IA/g
Biodistribution Heart [2, 5]: 1.2 ± 0.3 % IA/g
Biodistribution Intestine [2, 5]: 1.7 ± 0.4 % IA/g
Biodistribution Kidney [2, 5]: 2.4 ± 0.3 % IA/g
Biodistribution Liver [2, 5]: 1.5 ± 0.0 % IA/g
Biodistribution Lung [2, 5]: 1.8 ± 0.0 % IA/g
Biodistribution Muscle [2, 5]: 2.6 ± 0.7 % IA/g
Biodistribution Pancreas [2, 5]: 2.5 ± 0.3 % IA/g
Biodistribution Spleen [2, 5]: 0.8 ± 0.1 % IA/g
Biodistribution Stomach [2, 5]: 1.1 ± 0.2 % IA/g
Biodistribution Heart ([2]; 4 hours p.i.): 0.7 ± 0.1 % I.A./g
Biodistribution Liver ([2]; 4 hours p.i.): 1.0 ± 0.2 % I.A./g
Biodistribution Lung ([2]; 4 hours p.i.): 0.8 ± 0.2 % I.A./g
Biodistribution Spleen ([2]; 4 hours p.i.): 0.5 ± 0.1 % I.A./g
Biodistribution Stomach ([2]; 4 hours p.i.): 0.7 ± 0.1 % I.A./g
Biodistribution Adrenal [2, 6]: 1.4 ± 0.2 % IA/g
Biodistribution Blood [2, 6]: 1.2 ± 0.3 % IA/g
Biodistribution Femur [2, 6]: 4.2 ± 1.5 % IA/g
Biodistribution HT1080.hFAP (FAP-positive tumor) [2, 6]: 7.1 ± 3.0 % IA/g
Biodistribution HT1080.wt (FAP-negative tumor) [2, 6]: 2.1 ± 0.5 % IA/g
Biodistribution Heart [2, 6]: 0.7 ± 0.1 % IA/g
Biodistribution Intestine [2, 6]: 1.1 ± 0.4 % IA/g
Biodistribution Kidney [2, 6]: 1.5 ± 0.5 % IA/g
Biodistribution Liver [2, 6]: 1.0 ± 0.2 % IA/g
Biodistribution Lung [2, 6]: 0.8 ± 0.2 % IA/g
Biodistribution Muscle [2, 6]: 1.3 ± 0.1 % IA/g
Biodistribution Pancreas [2, 6]: 1.4 ± 0.2 % IA/g
Biodistribution Spleen [2, 6]: 0.5 ± 0.1 % IA/g
Biodistribution Stomach [2, 6]: 0.7 ± 0.1 % IA/g
Biodistribution HT-1080.wt ([2]; 1 hour p.i.): 4.5 ± 0.6 % I.A./g
Biodistribution HT-1080.wt ([2]; 4 hours p.i.): 2.1 ± 0.5 % I.A./g
Biodistribution HT-1080.hFAP ([2]; 1 hour p.i.): 12.6 ± 1.5 % I.A./g
Biodistribution HT-1080.hFAP ([2]; 4 hours p.i.): 7.1 ± 3.0 % I.A./g
Bmax [3]: 8.6-9.2
SMILES: N#C[C@@H]1CC(F)(F)CN1C(=O)CNC(=O)c1ccnc2ccc(NC(=O)CCC(=O)NCCNC(=O)CC[C@H](C(=O)O)N3CCN4CCN(CC3)CC(=O)[O][61Cu][O]C(=O)C4)cc12 [[^61Cu]Cu-NODAGA-F1]
accumulation in tumor and target-positive tissues [2, 7]: high accumulation in FAP-positive (HT-1080.hFAP) tumor and murine-FAP-positive tissues

retention in the body (remaining PET activity) [1]: lowest value
Biodistribution Heart ([2]; 1 hour p.i.): 0.6 ± 0.0 % I.A./g
Biodistribution Intestine ([2]; 1 hour p.i.): 0.5 ± 0.2 % I.A./g
Biodistribution Liver ([2]; 1 hour p.i.): 0.6 ± 0.1 % I.A./g
Biodistribution Lung ([2]; 1 hour p.i.): 0.9 ± 0.1 % I.A./g
Biodistribution Muscle ([2]; 1 hour p.i.): 0.8 ± 0.2 % I.A./g
Biodistribution Spleen ([2]; 1 hour p.i.): 0.4 ± 0.0 % I.A./g
Biodistribution Stomach ([2]; 1 hour p.i.): 0.5 ± 0.0 % I.A./g
Biodistribution Adrenal [2, 5]: 1.1 ± 0.2 % IA/g
Biodistribution Blood [2, 5]: 1.4 ± 0.1 % IA/g
Biodistribution Femur [2, 5]: 3.2 ± 0.8 % IA/g
Biodistribution HT1080.hFAP (FAP-positive tumor) [2, 5]: 7.4 ± 1.6 % IA/g
Biodistribution HT1080.wt (FAP-negative tumor) [2, 5]: 1.7 ± 0.2 % IA/g
Biodistribution Heart [2, 5]: 0.6 ± 0.0 % IA/g
Biodistribution Intestine [2, 5]: 0.5 ± 0.2 % IA/g
Biodistribution Kidney [2, 5]: 1.8 ± 0.2 % IA/g
Biodistribution Liver [2, 5]: 0.6 ± 0.1 % IA/g
Biodistribution Lung [2, 5]: 0.9 ± 0.1 % IA/g
Biodistribution Muscle [2, 5]: 0.8 ± 0.2 % IA/g
Biodistribution Pancreas [2, 5]: 1.1 ± 0.1 % IA/g
Biodistribution Spleen [2, 5]: 0.4 ± 0.0 % IA/g
Biodistribution Stomach [2, 5]: 0.5 ± 0.0 % IA/g
Biodistribution Adrenal ([2]; 4 hours p.i.): 0.5 ± 0.1 % I.A./g
Biodistribution Blood ([2]; 4 hours p.i.): 0.4 ± 0.1 % I.A./g
Biodistribution Heart ([2]; 4 hours p.i.): 0.2 ± 0.0 % I.A./g
Biodistribution Intestine ([2]; 4 hours p.i.): 0.3 ± 0.1 % I.A./g
Biodistribution Liver ([2]; 4 hours p.i.): 0.4 ± 0.0 % I.A./g
Biodistribution Lung ([2]; 4 hours p.i.): 0.3 ± 0.0 % I.A./g
Biodistribution Muscle ([2]; 4 hours p.i.): 0.4 ± 0.1 % I.A./g
Biodistribution Pancreas ([2]; 4 hours p.i.): 0.4 ± 0.1 % I.A./g
Biodistribution Spleen ([2]; 4 hours p.i.): 0.2 ± 0.0 % I.A./g
Biodistribution Stomach ([2]; 4 hours p.i.): 0.2 ± 0.0 % I.A./g
Biodistribution Adrenal [2, 6]: 0.5 ± 0.1 % IA/g
Biodistribution Blood [2, 6]: 0.4 ± 0.1 % IA/g
Biodistribution Femur [2, 6]: 1.2 ± 0.1 % IA/g
Biodistribution HT1080.hFAP (FAP-positive tumor) [2, 6]: 3.0 ± 0.8 % IA/g
Biodistribution HT1080.wt (FAP-negative tumor) [2, 6]: 0.6 ± 0.0 % IA/g
Biodistribution Heart [2, 6]: 0.2 ± 0.0 % IA/g
Biodistribution Intestine [2, 6]: 0.3 ± 0.1 % IA/g
Biodistribution Kidney [2, 6]: 1.1 ± 0.1 % IA/g
Biodistribution Liver [2, 6]: 0.4 ± 0.0 % IA/g
Biodistribution Lung [2, 6]: 0.3 ± 0.0 % IA/g
Biodistribution Muscle [2, 6]: 0.4 ± 0.1 % IA/g
Biodistribution Pancreas [2, 6]: 0.4 ± 0.1 % IA/g
Biodistribution Spleen [2, 6]: 0.2 ± 0.0 % IA/g
Biodistribution Stomach [2, 6]: 0.2 ± 0.0 % IA/g
Biodistribution HT-1080.wt ([2]; 1 hour p.i.): 1.7 ± 0.2 % I.A./g
Biodistribution HT-1080.wt ([2]; 4 hours p.i.): 0.6 ± 0.0 % I.A./g
Biodistribution HT-1080.hFAP ([2]; 1 hour p.i.): 7.4 ± 1.6 % I.A./g
Biodistribution HT-1080.hFAP ([2]; 4 hours p.i.): 3.0 ± 0.8 % I.A./g
Bmax [3]: 9.1-9.8
SMILES: CN(C(=O)CCC(=O)N1CCN(C(=O)CC[C@H](C(=O)O)N2CCN3CCN(CC2)CC(=O)[O][61Cu][O]C(=O)C3)CC1)c1ccc2nccc(C(=O)NCC(=O)N3CC(F)(F)C[C@H]3C#N)c2c1 [[^61Cu]Cu-NODAGA-F4]
accumulation in tumor and target-positive tissues [2, 7]: high accumulation in FAP-positive (HT-1080.hFAP) tumor and murine-FAP-positive tissues
Cell surface fraction ([4]; 15 min, HT-1080.hFAP cells, specific uptake (minus HT-1080.wt)): 1.0 ± 0.7 % of the applied activity
Cell surface fraction ([4]; 240 min, HT-1080.hFAP cells, specific uptake (minus HT-1080.wt)): 0.9 ± 0.6 % of the applied activity
Cell surface fraction ([4]; Time Point 15 min, 0.2 nM): 1.0 ± 0.7 percentage of the total applied activity
Cell surface fraction ([4]; Time Point 240 min, 0.2 nM): 0.9 ± 0.6 percentage of the total applied activity
